Experimental data taken from patent US6495588B2, “Scytonemin and methods of using thereof” (The Regents of the University of California, priority 2000, dated 2002).

Target: T1, CDK1/cyclinB1 (Homo sapiens, UniProt P06493)
T1 construct: made in house
Assay: CDK1/cyclinB histone H1 phosphorylation assay
Type: biochemical
Conditions: 0.1 μM ATP, histone H1 substrate
Description: To determine the effect of SCY on CDK1/cyclinB1 kinase activity, the following assay was conducted. Baculovirus vectors expressing CDK1 and cyclinB1, obtained from Dr. David Morgan of the University of California San Francisco, were expressed and purified by the method described in Desai, et al. (1992) Mol. Cell Biol. 3:571-582, which is herein incorporated by reference, to 80% purity as determined by SDS-PAGE analysis and Coomassie Blue staining. CDK1/cyclinB1 kinase activity was analyzed in a 96-well flashplate assay using 2.0 μg/well bovine histone H1 as a substrate. Reactions were run in 50 μl with 0.25 μg of CDK1/cyclinB1 complex, in reaction buffer (50 mM HEPES, pH 7.4, 10 mM MgCl2, 0.1 μM ATP, 1 mM DTT and 0.5 μCi of [γ^33-P] ATP (final reaction concentrations)), and SCY (1 nM to 10 μM final reaction concentration). The positive control used was […] hymenialdisine (final concentration) in a final vehicle concentration of 1% DMSO.
Reactions were initiated with the addition of ATP and allowed to proceed for 10 minutes at room temperature. The reactions were stopped by washing the plate five times with 300 μl/well of PBS. The plate was then counted on a Packard Top-Count.

T1 sequence (P06493 whole entry): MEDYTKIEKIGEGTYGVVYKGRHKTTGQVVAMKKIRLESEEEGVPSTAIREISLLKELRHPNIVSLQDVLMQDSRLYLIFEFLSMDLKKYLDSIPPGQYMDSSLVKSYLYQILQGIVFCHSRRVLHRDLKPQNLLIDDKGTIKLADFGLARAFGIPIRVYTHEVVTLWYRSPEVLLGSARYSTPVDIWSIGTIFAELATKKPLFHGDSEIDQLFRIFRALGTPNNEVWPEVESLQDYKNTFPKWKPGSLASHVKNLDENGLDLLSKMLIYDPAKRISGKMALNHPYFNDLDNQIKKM
T1 sequence (P14635 whole entry partner): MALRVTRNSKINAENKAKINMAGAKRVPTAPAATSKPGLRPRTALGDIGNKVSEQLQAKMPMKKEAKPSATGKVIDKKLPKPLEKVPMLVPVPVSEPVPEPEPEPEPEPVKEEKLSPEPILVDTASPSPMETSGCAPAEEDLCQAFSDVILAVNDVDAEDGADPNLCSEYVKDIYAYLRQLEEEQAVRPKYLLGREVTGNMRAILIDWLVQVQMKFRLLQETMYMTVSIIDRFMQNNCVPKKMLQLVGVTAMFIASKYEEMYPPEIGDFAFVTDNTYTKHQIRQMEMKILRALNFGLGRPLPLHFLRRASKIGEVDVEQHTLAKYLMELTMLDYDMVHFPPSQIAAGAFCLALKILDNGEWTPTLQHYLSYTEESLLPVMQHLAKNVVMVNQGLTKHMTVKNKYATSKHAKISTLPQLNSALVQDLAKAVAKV

## scytonemin
  IC50: ~3 µM
